Results reported in ChEMBL document CHEMBL1139332, “Selective activity against Mycobacteriumtuberculosis of new quinoxaline 1,4-di-N-oxides” (Bioorg Med Chem, 2009).
≈ marks a conversion by molar mass, not a printed value.

Columns and labels:
[1] = tested on: Mycobacterium tuberculosis; assay: Antimicrobial activity against Mycobacterium tuberculosis H37Rv by microplate alamar blue assay; format: functional
[2] = tested on: Mycobacterium tuberculosis; assay: Antimicrobial activity against Mycobacterium tuberculosis H37Rv at 6.25 ug/ml by microplate alamar blue assay; format: functional
[3] = tested on: Vero; assay: Cytotoxicity against african green monkey Vero cells after 72 hrs by MTT assay; format: cell-based, Chlorocebus sabaeus
[4] = Selectivity index, ratio of IC50 for african green monkey Vero cells to MIC for Mycobacterium tuberculosis H37Rv; format: functional
[5] = Chlorocebus sabaeus, Vero, 72 h, read-out: IC50

Structure (SMILES)	MIC [1] [µg/mL]	inhibition at 6.25 µg/mL [2] [%]	IC50 [3, 5] [µg/mL]	Ratio [4]	IC50 ([3]; vero)
COc1ccc(-c2c(C#N)[n+]([O-])c3cc(C)c(C)cc3[n+]2[O-])cc1	< 0.2	90			
COc1ccc(-c2c(C#N)[n+]([O-])c3cc(C)ccc3[n+]2[O-])cc1	< 0.2	90			
Cc1cc2c(cc1C)[n+]([O-])c(-c1ccccc1)c(C#N)[n+]2[O-]	0.39 (≈ 1.34 µM)	90	3.9 (≈ 13.4 µM)	10	
N#Cc1c(-c2ccccc2)[n+]([O-])c2cc(Cl)c(Cl)cc2[n+]1[O-]	0.2 (≈ 0.602 µM)	90			ND(Insoluble)
CCOC(=O)c1c(C)[n+]([O-])c2ccc(Cl)cc2[n+]1[O-]	0.2 (≈ 0.708 µM)			>50	
Cc1cc2c(cc1C)[n+]([O-])c(-c1ccc(F)cc1)c(C#N)[n+]2[O-]	1.69 (≈ 5.46 µM)	90	100 (≈ 323 µM)	>59.07	
N#Cc1c(-c2ccc(OC(F)(F)F)cc2)[n+]([O-])c2ccc(C(F)(F)F)cc2[n+]1[O-]	< 0.2	90			
CCOC(=O)c1c(-c2ccccc2)[n+]([O-])c2cc(Cl)c(Cl)cc2[n+]1[O-]	< 0.2	90			
N#Cc1c(-c2ccccc2)[n+]([O-])c2ccccc2[n+]1[O-]	0.2 (≈ 0.76 µM)	90	1.9 (≈ 7.22 µM)	9.5	
Cc1ccc2c(c1)[n+]([O-])c(C#N)c(-c1ccccc1)[n+]2[O-]	0.39 (≈ 1.41 µM)	90	3.6 (≈ 13 µM)	9.2	
COc1ccc2c(c1)[n+]([O-])c(C#N)c(-c1ccccc1)[n+]2[O-]	3.13 (≈ 10.7 µM)	90			ND(Insoluble)
N#Cc1c(-c2ccc(Cl)cc2)[n+]([O-])c2cc(Cl)c(Cl)cc2[n+]1[O-]	< 0.2	90			ND(Insoluble)
Cc1cc2c(cc1C)[n+]([O-])c(N1CCN(c3ccc([N+](=O)[O-])cc3)CC1)c(C#N)[n+]2[O-]	< 0.2			>125	
Cc1c(C(=O)OCc2ccccc2)[n+]([O-])c2cc(Cl)ccc2[n+]1[O-]	0.1 (≈ 0.29 µM)			470	
COC(=O)c1ccc(-c2c(C#N)[n+]([O-])c3cc(Cl)c(Cl)cc3[n+]2[O-])cc1	> 6.25				
CC(=O)c1c(C)[n+]([O-])c2ccc(Cl)cc2[n+]1[O-]	0.78 (≈ 3.09 µM)			20	
N#Cc1c(-c2ccc(F)cc2)[n+]([O-])c2ccc(Cl)cc2[n+]1[O-]	< 0.2	90	51.7 (≈ 164 µM)	>258.67	
Cc1ccc2c(c1)[n+]([O-])c(C#N)c(-c1ccc(F)cc1)[n+]2[O-]	< 0.2	90	> 100	>500	
Cc1ccc2c(c1)[n+]([O-])c(C#N)c(-c1ccc(Cl)cc1)[n+]2[O-]	0.39 (≈ 1.25 µM)	90	0.45 (≈ 1.44 µM)	1.15	
Cc1ccc(-c2c(C#N)[n+]([O-])c3ccccc3[n+]2[O-])cc1	0.39 (≈ 1.41 µM)	90	0.68 (≈ 2.45 µM)	1.7	
Cc1ccc(-c2c(C#N)[n+]([O-])c3cc(Cl)ccc3[n+]2[O-])cc1	6.25 (≈ 20 µM)	90	0.63 (≈ 2.02 µM)	0.1	
N#Cc1c(-c2ccc(F)cc2)[n+]([O-])c2cc(Cl)c(Cl)cc2[n+]1[O-]	< 0.2	90	7.41 (≈ 21.2 µM)	>37.06	
COc1ccc(-c2c(C#N)[n+]([O-])c3ccccc3[n+]2[O-])cc1	< 0.2	90			
N#Cc1c(-c2ccc(OC(F)(F)F)cc2)[n+]([O-])c2ccccc2[n+]1[O-]	< 0.2	90			

Structure (SMILES)	MIC [1] [µg/mL]	inhibition at 6.25 µg/mL [2] [%]	IC50 [3, 5] [µg/mL]	Ratio [4]	IC50 ([3]; vero)
COc1ccc(-c2c(C#N)[n+]([O-])c3cc(OC)ccc3[n+]2[O-])cc1	< 0.2	90			
COc1ccc(-c2c(C#N)[n+]([O-])c3cc(Cl)c(Cl)cc3[n+]2[O-])cc1	< 0.2	90			
N#Cc1c(-c2ccc(F)cc2)[n+]([O-])c2ccccc2[n+]1[O-]	< 0.2	90	3.83 (≈ 13.6 µM)	>19.16	
N#Cc1c(-c2ccccc2)[n+]([O-])c2ccc(F)cc2[n+]1[O-]	< 0.2	90	17.6 (≈ 62.6 µM)	>88.03	
N#Cc1c(-c2ccc(F)cc2)[n+]([O-])c2ccc(F)cc2[n+]1[O-]	< 0.2	90	24.9 (≈ 83.3 µM)	>124.67	
N#Cc1c(-c2ccc(Cl)cc2)[n+]([O-])c2ccc(F)cc2[n+]1[O-]	< 0.2	90	47.9 (≈ 152 µM)	>239.69	
N#Cc1c(-c2ccc(OC(F)(F)F)cc2)[n+]([O-])c2ccc(Cl)cc2[n+]1[O-]	< 0.2	90			
Cc1ccc2c(c1)[n+]([O-])c(C#N)c(-c1ccc(OC(F)(F)F)cc1)[n+]2[O-]	< 0.2	90			
COc1ccc2c(c1)[n+]([O-])c(C#N)c(-c1ccc(OC(F)(F)F)cc1)[n+]2[O-]	< 0.2	90			
Cc1cc2c(cc1C)[n+]([O-])c(-c1ccc(OC(F)(F)F)cc1)c(C#N)[n+]2[O-]	0.42 (≈ 1.12 µM)	90			
N#Cc1c(-c2ccccc2)[n+]([O-])c2ccc(C(F)(F)F)cc2[n+]1[O-]	< 0.2	90	3.78 (≈ 11.4 µM)	>18.89	
N#Cc1c(-c2ccc(F)cc2)[n+]([O-])c2ccc(C(F)(F)F)cc2[n+]1[O-]	< 0.2	90	0.99 (≈ 2.83 µM)	>4.94	
N#Cc1c(-c2ccc(Cl)cc2)[n+]([O-])c2ccc(Cl)cc2[n+]1[O-]	0.39 (≈ 1.17 µM)	90			ND(Insoluble)
Cc1cc2c(cc1C)[n+]([O-])c(-c1ccc(Cl)cc1)c(C#N)[n+]2[O-]	0.78 (≈ 2.39 µM)	90	> 10	>12.8	
N#Cc1c(-c2ccccc2)[n+]([O-])c2ccc(Cl)cc2[n+]1[O-]	0.39 (≈ 1.31 µM)	90	0.36 (≈ 1.21 µM)	0.92	
N#Cc1c(-c2ccc(Cl)cc2)[n+]([O-])c2ccccc2[n+]1[O-]	0.39 (≈ 1.31 µM)	90	0.36 (≈ 1.21 µM)	0.92	
COc1ccc2c(c1)[n+]([O-])c(C#N)c(-c1ccc(Cl)cc1)[n+]2[O-]	0.78 (≈ 2.38 µM)	90	1 (≈ 3.05 µM)	1.3	
COc1ccc2c(c1)[n+]([O-])c(C#N)c(-c1ccc(F)cc1)[n+]2[O-]	< 0.2	90	95.1 (≈ 306 µM)	>475.55	
Cc1ccc(-c2c(C#N)[n+]([O-])c3cc(C)ccc3[n+]2[O-])cc1	0.78 (≈ 2.68 µM)	90			ND(Insoluble)
COc1ccc(-c2c(C#N)[n+]([O-])c3cc(Cl)ccc3[n+]2[O-])cc1	< 0.2	90			
N#Cc1c(-c2ccc(OC(F)(F)F)cc2)[n+]([O-])c2ccc(F)cc2[n+]1[O-]	< 0.2	90			
Cc1ccc(-c2c(C#N)[n+]([O-])c3cc(F)ccc3[n+]2[O-])cc1	< 0.2	90	14.6 (≈ 49.6 µM)	>73.19	
N#Cc1c(-c2ccc(OC(F)(F)F)cc2)[n+]([O-])c2cc(Cl)c(Cl)cc2[n+]1[O-]	< 0.2	90			
N#Cc1c(-c2ccc(Cl)cc2)[n+]([O-])c2ccc(C(F)(F)F)cc2[n+]1[O-]	< 0.2	90	1.34 (≈ 3.66 µM)	>6.68	
